Measurements published in ChEMBL document CHEMBL5291721, “A preclinical secondary pharmacology resource illuminates target-adverse drug reaction associations of marketed drugs” (Nat Commun, 2023).

Legend:
[1] = target: Voltage-gated inwardly rectifying potassium channel KCNH2 (Homo sapiens, UniProt Q12809); type: functional
D(3) dopamine receptor = D(3) dopamine receptor (Homo sapiens, UniProt P35462)
Thromboxane A2 receptor [2] = target: T1, Thromboxane A2 receptor (Homo sapiens, UniProt P21731); type: functional, cell-based
T1 sequence (P21731 whole entry): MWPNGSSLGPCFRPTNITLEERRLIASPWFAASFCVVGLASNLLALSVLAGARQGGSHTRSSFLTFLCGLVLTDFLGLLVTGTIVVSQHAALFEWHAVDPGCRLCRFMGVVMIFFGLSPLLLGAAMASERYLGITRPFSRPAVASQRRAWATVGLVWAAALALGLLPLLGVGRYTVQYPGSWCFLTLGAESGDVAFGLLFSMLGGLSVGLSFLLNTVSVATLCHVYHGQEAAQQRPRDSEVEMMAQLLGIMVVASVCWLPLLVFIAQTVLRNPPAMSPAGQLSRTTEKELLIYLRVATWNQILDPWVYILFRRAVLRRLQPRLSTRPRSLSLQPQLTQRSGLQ

[3] = target: T2, Muscarinic acetylcholine receptor M2 (Homo sapiens, UniProt P08172)
T2 sequence (P08172 whole entry): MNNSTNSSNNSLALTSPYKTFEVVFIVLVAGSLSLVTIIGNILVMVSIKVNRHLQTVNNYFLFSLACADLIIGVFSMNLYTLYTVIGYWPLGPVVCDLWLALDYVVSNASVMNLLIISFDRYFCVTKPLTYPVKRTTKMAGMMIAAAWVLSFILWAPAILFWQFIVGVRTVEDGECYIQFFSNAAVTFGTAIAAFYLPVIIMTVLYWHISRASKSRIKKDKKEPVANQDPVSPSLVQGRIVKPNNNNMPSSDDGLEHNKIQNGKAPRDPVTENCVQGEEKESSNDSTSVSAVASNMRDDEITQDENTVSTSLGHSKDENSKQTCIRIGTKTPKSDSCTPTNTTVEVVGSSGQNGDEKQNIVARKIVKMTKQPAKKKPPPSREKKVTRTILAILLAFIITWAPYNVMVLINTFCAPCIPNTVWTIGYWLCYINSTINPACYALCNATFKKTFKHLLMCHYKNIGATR

Thromboxane A2 receptor [4] = target: T1, Thromboxane A2 receptor; type: functional, cell-based; remark: listed apart in the source
Histamine H3 receptor = Histamine H3 receptor (Homo sapiens, UniProt Q9Y5N1)
Histamine H3 receptor, sequence (Q9Y5N1 whole entry): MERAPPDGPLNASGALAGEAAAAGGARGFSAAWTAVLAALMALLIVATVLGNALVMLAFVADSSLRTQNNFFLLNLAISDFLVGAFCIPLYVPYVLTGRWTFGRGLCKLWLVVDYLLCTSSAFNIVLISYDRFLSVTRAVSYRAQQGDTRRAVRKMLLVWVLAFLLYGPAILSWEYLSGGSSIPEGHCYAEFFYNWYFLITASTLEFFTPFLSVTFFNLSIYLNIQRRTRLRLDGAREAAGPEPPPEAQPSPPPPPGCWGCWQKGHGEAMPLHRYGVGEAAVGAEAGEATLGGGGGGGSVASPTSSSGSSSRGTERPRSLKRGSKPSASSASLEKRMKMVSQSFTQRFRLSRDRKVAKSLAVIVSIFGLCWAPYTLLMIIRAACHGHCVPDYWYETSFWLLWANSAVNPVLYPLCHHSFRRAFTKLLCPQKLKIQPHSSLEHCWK

[5] = target: T3, 5-hydroxytryptamine receptor 1A (Homo sapiens, UniProt P08908)
T3 sequence (P08908 whole entry): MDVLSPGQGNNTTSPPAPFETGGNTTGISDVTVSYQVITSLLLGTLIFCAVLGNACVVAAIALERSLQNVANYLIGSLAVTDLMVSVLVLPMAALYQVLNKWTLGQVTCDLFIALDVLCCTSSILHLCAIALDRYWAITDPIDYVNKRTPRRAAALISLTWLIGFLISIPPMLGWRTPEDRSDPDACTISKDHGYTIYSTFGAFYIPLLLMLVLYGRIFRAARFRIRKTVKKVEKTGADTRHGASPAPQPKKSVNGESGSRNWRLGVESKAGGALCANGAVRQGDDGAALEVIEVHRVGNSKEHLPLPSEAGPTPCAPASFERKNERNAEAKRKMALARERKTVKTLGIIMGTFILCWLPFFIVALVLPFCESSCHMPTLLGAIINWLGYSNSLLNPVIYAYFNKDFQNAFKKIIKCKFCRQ

[6] = target: Sodium-dependent noradrenaline transporter (Homo sapiens, UniProt P23975)
Sodium-dependent noradrenaline transporter, sequence (P23975 whole entry): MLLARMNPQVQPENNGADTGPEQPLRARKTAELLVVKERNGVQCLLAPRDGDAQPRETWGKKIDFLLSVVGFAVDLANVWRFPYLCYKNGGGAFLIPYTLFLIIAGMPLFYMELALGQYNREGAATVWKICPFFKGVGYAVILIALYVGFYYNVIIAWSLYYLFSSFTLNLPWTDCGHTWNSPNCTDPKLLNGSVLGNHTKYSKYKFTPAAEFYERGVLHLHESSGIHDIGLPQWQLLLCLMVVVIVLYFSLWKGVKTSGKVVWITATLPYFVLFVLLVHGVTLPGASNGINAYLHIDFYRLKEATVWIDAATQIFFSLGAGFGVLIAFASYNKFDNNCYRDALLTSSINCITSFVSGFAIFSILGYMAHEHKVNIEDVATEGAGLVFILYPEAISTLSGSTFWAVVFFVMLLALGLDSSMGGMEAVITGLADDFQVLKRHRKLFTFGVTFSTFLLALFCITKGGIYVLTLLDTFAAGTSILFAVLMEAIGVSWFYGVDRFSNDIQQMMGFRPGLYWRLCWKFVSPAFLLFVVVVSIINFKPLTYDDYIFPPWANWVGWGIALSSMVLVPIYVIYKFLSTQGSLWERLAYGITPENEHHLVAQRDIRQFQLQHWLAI

D(1A) dopamine receptor = D(1A) dopamine receptor (Homo sapiens, UniProt P21728)
D(1A) dopamine receptor, sequence (P21728 whole entry): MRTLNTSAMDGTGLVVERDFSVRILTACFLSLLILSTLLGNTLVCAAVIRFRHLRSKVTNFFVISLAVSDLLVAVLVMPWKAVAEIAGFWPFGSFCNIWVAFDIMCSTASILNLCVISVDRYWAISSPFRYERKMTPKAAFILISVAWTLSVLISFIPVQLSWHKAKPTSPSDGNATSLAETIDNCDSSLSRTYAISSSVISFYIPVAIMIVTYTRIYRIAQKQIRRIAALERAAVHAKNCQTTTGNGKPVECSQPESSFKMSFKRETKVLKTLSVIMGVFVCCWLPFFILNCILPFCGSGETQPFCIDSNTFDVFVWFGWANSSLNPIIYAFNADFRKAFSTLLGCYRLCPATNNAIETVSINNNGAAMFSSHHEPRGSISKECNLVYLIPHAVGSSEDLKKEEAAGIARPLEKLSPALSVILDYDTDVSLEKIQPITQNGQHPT

Prothrombin = Prothrombin (Homo sapiens, UniProt P00734); type: functional
[7] = target: T4, Alpha-1A adrenergic receptor (Homo sapiens, UniProt P35348); type: functional, cell-based
T4 sequence (P35348 whole entry): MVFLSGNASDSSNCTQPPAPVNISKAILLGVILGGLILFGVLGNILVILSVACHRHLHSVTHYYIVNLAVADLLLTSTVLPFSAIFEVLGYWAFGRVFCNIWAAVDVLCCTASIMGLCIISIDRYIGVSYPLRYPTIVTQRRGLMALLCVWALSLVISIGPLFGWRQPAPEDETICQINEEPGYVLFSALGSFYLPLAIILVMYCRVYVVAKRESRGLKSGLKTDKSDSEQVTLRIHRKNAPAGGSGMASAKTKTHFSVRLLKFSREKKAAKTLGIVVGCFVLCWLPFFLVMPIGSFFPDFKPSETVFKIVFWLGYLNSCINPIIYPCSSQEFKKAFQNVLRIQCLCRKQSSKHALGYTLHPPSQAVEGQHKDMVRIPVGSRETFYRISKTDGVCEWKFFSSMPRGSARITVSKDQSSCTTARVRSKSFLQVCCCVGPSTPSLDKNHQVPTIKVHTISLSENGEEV

[8] = target: T5, Alpha-2A adrenergic receptor (Homo sapiens, UniProt P08913)
T5 sequence (P08913 whole entry): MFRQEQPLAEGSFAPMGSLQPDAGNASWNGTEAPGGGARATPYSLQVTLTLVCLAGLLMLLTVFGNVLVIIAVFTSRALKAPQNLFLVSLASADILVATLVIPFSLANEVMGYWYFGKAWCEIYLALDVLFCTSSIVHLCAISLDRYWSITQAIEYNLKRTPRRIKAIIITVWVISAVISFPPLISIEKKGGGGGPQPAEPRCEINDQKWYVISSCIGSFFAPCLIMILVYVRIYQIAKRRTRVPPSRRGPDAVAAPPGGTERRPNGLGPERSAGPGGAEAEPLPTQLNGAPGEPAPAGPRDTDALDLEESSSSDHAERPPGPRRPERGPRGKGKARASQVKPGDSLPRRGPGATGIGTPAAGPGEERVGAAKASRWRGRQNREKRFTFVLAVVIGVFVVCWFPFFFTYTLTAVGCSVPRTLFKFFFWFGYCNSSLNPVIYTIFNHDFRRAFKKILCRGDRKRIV

[9] = target: Prostaglandin G/H synthase 1 (Homo sapiens, UniProt P23219); type: functional
Prostaglandin G/H synthase 1, sequence (P23219 whole entry): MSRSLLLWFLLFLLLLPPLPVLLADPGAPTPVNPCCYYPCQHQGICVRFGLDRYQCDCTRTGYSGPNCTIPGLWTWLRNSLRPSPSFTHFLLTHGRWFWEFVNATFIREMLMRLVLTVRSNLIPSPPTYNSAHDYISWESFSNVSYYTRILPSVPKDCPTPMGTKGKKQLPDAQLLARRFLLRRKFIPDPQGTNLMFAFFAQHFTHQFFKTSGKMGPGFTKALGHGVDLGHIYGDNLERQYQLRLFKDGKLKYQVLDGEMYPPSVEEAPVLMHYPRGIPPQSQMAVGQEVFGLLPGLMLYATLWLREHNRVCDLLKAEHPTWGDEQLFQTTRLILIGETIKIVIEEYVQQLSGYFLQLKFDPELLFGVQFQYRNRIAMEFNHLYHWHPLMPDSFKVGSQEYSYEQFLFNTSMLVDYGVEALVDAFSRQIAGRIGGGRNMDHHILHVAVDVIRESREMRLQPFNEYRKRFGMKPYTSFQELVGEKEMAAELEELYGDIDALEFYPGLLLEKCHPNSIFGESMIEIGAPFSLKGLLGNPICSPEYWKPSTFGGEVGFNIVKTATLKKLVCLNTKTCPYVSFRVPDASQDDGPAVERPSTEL
Also: assay procedure not described here.

D(3) dopamine receptor, sequence (P35462 whole entry): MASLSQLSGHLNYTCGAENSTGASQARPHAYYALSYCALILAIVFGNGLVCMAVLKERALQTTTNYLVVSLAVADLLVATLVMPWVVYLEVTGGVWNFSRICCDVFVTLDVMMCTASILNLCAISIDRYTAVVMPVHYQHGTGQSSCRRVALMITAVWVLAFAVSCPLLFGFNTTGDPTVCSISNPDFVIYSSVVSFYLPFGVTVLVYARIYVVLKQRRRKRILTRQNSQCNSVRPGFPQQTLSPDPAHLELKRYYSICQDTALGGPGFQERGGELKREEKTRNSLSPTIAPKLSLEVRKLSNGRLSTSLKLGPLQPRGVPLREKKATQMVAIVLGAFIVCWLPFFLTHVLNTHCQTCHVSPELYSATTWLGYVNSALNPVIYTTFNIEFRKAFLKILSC
Voltage-gated inwardly rectifying potassium channel KCNH2, sequence (Q12809 whole entry): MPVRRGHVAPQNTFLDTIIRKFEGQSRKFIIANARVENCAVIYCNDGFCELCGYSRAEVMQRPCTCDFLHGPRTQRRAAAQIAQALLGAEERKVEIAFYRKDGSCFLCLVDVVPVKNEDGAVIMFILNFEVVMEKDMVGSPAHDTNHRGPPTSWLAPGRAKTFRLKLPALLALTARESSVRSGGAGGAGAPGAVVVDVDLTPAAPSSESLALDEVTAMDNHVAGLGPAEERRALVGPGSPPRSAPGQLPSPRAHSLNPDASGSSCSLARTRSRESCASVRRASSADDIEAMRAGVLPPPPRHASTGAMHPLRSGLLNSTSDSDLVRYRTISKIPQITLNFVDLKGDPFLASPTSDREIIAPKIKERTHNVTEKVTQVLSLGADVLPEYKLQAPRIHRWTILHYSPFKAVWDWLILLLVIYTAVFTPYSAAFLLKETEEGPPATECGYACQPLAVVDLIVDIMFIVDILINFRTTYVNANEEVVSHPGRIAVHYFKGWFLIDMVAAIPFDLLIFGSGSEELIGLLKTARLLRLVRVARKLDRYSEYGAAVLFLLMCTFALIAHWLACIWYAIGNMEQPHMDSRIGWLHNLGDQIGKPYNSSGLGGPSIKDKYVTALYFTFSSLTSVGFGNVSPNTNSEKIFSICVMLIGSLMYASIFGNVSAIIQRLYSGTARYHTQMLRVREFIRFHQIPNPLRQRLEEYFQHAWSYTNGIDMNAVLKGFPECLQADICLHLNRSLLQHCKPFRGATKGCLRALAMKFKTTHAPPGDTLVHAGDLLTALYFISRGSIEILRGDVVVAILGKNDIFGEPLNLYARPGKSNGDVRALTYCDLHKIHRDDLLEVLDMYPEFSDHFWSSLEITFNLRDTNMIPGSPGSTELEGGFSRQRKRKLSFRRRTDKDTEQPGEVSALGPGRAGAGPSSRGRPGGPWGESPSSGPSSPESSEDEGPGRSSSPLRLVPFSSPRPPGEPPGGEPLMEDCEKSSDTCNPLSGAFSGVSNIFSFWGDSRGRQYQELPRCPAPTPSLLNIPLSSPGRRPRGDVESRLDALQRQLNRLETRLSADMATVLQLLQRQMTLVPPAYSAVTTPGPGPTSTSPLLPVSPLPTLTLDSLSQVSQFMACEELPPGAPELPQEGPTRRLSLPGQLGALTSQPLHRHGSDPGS

| SMILES | AC50 [1] [µM] | AC50 (Thromboxane A2 receptor [2]) [µM] | AC50 [3] [µM] | AC50 (Thromboxane A2 receptor [4]) [µM] | AC50 (Histamine H3 receptor) [µM] | AC50 [5] [µM] | AC50 [6] [µM] | AC50 (Prothrombin) [µM] | further results |
| --- | --- | --- | --- | --- | --- | --- | --- | --- | --- |
| CCOc1nc2cccc(C(=O)O)c2n1Cc1ccc(-c2ccccc2-c2nnn[nH]2)cc1 | > 30 | – | – | – | – | – | – | – | – |
| CC(=O)Nc1ccc(CC(=O)O)cc1 [ACTARIT] | > 30 | – | – | – | – | – | – | – | – |
| CC(C(=O)O)c1ccc2oc(-c3ccc(Cl)cc3)nc2c1 (configuration not stated) [BENOXAPROFEN] | > 30 | – | – | – | – | – | – | – | – |
| Nc1c(CC(=O)O)cccc1C(=O)c1ccc(Br)cc1 [BROMFENAC] | > 30 | > 30 | > 30 | > 30 | > 30 | > 30 | > 30 | > 30 | AC50 (D(3) dopamine receptor): > 30 µM; AC50 (D(1A) dopamine receptor): > 30 µM; AC50 [7]: > 30 µM; AC50 [8]: > 30 µM |
| CC1(C)S[C@@H]2[C@H](NC(=O)C(C(=O)O)c3ccccc3)C(=O)N2[C@H]1C(=O)O (some centres not stated) [CARBENICILLIN] | > 30 | – | – | – | – | – | – | – | – |
| Cc1nnc(SCC2=C(C(=O)O)N3C(=O)[C@@H](NC(=O)Cn4cnnn4)[C@H]3SC2)s1 [CEFAZOLIN] | > 300 | – | – | – | – | – | – | – | – |
| CC=CC1=C(C(=O)O)N2C(=O)[C@@H](NC(=O)[C@H](N)c3ccc(O)cc3)[C@H]2SC1 [CEFPROZIL] | > 30 | – | – | – | – | – | – | – | – |
| CC(C)(O/N=C(\C(=O)N[C@@H]1C(=O)N2C(C(=O)[O-])=C(C[n+]3ccccc3)CS[C@H]12)c1csc(N)n1)C(=O)O [CEFTAZIDIME] | > 300 | – | – | – | – | – | – | – | – |
| CC(C)NC(=N)NC(=N)Nc1ccc(Cl)c(Cl)c1 [CHLORPROGUANIL] | 2.6 | > 30 | 29.7 | > 10 | > 30 | 3.82 | 2.89 | > 30 | AC50 [9]: > 30 µM; AC50 (D(3) dopamine receptor): > 30 µM; AC50 (D(1A) dopamine receptor): 1.77 µM; AC50 [8]: 5.59 µM |
| CCCNC(=O)NS(=O)(=O)c1ccc(Cl)cc1 [CHLORPROPAMIDE] | > 30 | – | – | – | – | – | – | – | – |
| Clc1ccc(Cn2c(CN3CCCC3)nc3ccccc32)cc1 [CLEMIZOLE] | 0.86 | – | – | – | – | – | – | – | – |
| CCC(=O)O[C@]1(C(=O)CCl)[C@@H](C)C[C@H]2[C@@H]3CCC4=CC(=O)C=C[C@]4(C)[C@@]3(F)[C@@H](O)C[C@@]21C [CLOBETASOL PROPIONATE] | > 30 | – | – | – | – | – | – | – | – |
| O=C(O)Cc1ccccc1Nc1c(Cl)cccc1Cl [DICLOFENAC] | > 30 | > 3 | > 3 | > 3 | > 3 | > 3 | > 3 | > 3 | AC50 (D(3) dopamine receptor): > 3 µM; AC50 (D(1A) dopamine receptor): > 3 µM; AC50 [7]: > 3 µM; AC50 [8]: > 3 µM |
| CN[C@@H]1[C@H](O[C@H]2[C@H](O[C@H]3[C@H](O)[C@@H](O)[C@H](NC(=N)N)[C@@H](O)[C@@H]3NC(=N)N)O[C@@H](C)[C@]2(O)CO)O[C@@H](CO)[C@H](O)[C@H]1O [DIHYDROSTREPTOMYCIN] | – | > 30 | > 30 | > 30 | > 30 | > 30 | > 30 | > 30 | AC50 [9]: > 30 µM; AC50 (D(3) dopamine receptor): > 30 µM; AC50 (D(1A) dopamine receptor): > 30 µM; AC50 [8]: > 30 µM |
| CNC[C@H](O)c1ccc(O)c(O)c1 [EPINEPHRINE] | > 30 | – | – | – | – | – | – | – | – |
| Cc1onc(-c2c(F)cccc2Cl)c1C(=O)N[C@@H]1C(=O)N2[C@@H]1SC(C)(C)[C@@H]2C(=O)O [FLOXACILLIN] | > 30 | – | – | – | – | – | – | – | – |
| C#C[C@]1(O)C=C[C@H]2[C@@H]3CCC4=CC(=O)CC[C@@H]4[C@H]3CC[C@@]21CC [GESTODENE] | – | > 30 | > 30 | > 30 | > 30 | > 30 | > 30 | > 30 | AC50 [9]: > 30 µM; AC50 (D(3) dopamine receptor): > 30 µM; AC50 (D(1A) dopamine receptor): > 30 µM; AC50 [8]: > 30 µM |
| CC[C@@H](CO)NC(=O)[C@@H]1C=C2c3cccc4c3c(cn4C)C[C@H]2N(C)C1 [METHYSERGIDE] | > 30 | – | – | – | – | – | – | – | – |
| CNC(=C[N+](=O)[O-])NCCSCc1csc(CN(C)C)n1 [NIZATIDINE] | > 30 | – | – | – | – | – | – | – | – |
| CN1Cc2c(N)cccc2C(c2ccccc2)C1 (configuration not stated) [NOMIFENSINE] | 4.8 | – | – | – | – | – | – | – | – |
| CC(CN1c2ccccc2Sc2ccccc21)N(C)C (configuration not stated) [PROMETHAZINE] | 0.922 | > 30 | 0.03 | > 3 | > 30 | 0.7 | 11.3 | > 30 | AC50 (D(3) dopamine receptor): 0.46 µM; AC50 (D(1A) dopamine receptor): 1.72 µM |
| CCCc1cc(=O)[nH]c(=S)[nH]1 [PROPYLTHIOURACIL] | > 30 | – | – | – | – | – | – | – | – |
| Cn1cc(C(=O)[C@@H]2CCc3nc[nH]c3C2)c2ccccc21 [RAMOSETRON] | 4.7 | – | – | – | – | – | – | – | – |
| CN(CCOc1ccc(CC2SC(=O)NC2=O)cc1)c1ccccn1 (configuration not stated) [ROSIGLITAZONE] | 13 | – | – | – | – | – | – | – | – |
| S=P(N1CC1)(N1CC1)N1CC1 [THIOTEPA] | 9.6 | – | – | – | – | – | – | – | – |
| CC(C)C[C@H](NC(=O)[C@@H](O)[C@H](N)Cc1ccccc1)C(=O)O [UBENIMEX] | > 30 | > 30 | > 30 | > 30 | > 30 | > 30 | > 30 | > 30 | AC50 [9]: > 30 µM; AC50 (D(3) dopamine receptor): > 30 µM; AC50 (D(1A) dopamine receptor): > 30 µM; AC50 [8]: > 30 µM |
| CC(C)[C@H](N)C(=O)OCCOCn1cnc2c(=O)[nH]c(N)nc21 [VALACYCLOVIR] | > 30 | – | – | – | – | – | – | – | – |
| CCC1=C[C@@H]2CN(C1)Cc1c([nH]c3ccccc13)[C@@](C(=O)OC)(c1cc3c(cc1OC)N(C)[C@H]1[C@@](O)(C(=O)OC)[C@H](OC(C)=O)[C@]4(CC)C=CCN5CC[C@]31[C@@H]54)C2 [VINORELBINE] | 5.5 | > 30 | > 30 | > 30 | > 30 | > 30 | > 30 | > 30 | AC50 (D(3) dopamine receptor): > 30 µM; AC50 (D(1A) dopamine receptor): > 30 µM; AC50 [7]: > 30 µM; AC50 [8]: > 30 µM |
| COc1cc(C(=O)NS(=O)(=O)c2ccccc2C)ccc1Cc1cn(C)c2ccc(NC(=O)OC3CCCC3)cc12 [ZAFIRLUKAST] | > 30 | – | – | – | – | – | – | – | – |
| O=C1Cc2cc(CCN3CCN(c4nsc5ccccc45)CC3)c(Cl)cc2N1 [ZIPRASIDONE] | – | > 30 | 7.14 | > 30 | > 30 | 0.003 | 0.507 | > 30 | AC50 [9]: > 30 µM; AC50 [7]: > 30 µM |
